Legend:
[1] = system: isolated mitochondria (HeLa and RS4;11 cells); test: Graphene sensor measurement of extra-mitochondrial buffer pH of tethered isolated mitochondria; set-up: species or system mammalian
Description: Here, is presented an electronic method to detect extra-mitochondrial pH of isolated mitochondria, based on tethering the mitochondria to one-atom thin graphene. The mitochondria are tethered via graphene bound antibodies which recognize the mitochondrial outer membrane protein, TOM20. Graphene is an excellent conductor and changes in the pH surrounding the mitochondria can change the graphene conductance and be detected electrically. Being optically transparent, the graphene layer also permits optical interrogation of the mitochondria concurrent with analysis of ionic changes.
An isolation buffer containing 225 mM mannitol, 75 mM sucrose, 0.5 mM EGTA, 20 mM HEPES, 0.5% (w/v) BSA, 1× protease inhibitor, pH 7.2 with 1 M KOH was used. […]
After mitochondria isolation, about 6 μg of mitochondrial protein of isolated mitochondria was loaded to a graphene device and incubated for 15 min at room temperature. […] The electrical measurement of Ids versus time and the fluorescence time-lapse measurement of TMRE signal were collected. […] In contrast, fluorescence images were taken once every 5 s for the experiments with CCCP or every 2 min for the experiments with BIM-BH3. […]
Control experiments were carried out in a similar manner with the only difference being the lack of isolated mitochondria. Software was used to analyze all electrical data and the fluorescence data that were exported from ImageJ software. […]

[2] = system: isolated mitochondria (HeLa and RS4;11 cells); test: TMRE fluorescence measurement of inner membrane potential (ΔΨm) of tethered isolated mitochondria; set-up: species or system mammalian; settings: TMRE signal
Experimental: Before isolation, the confluent cells were stained with 100 nM MITOTRACKER™ Green FM and 40 nM TMRE for 1 hour. Subsequent isolation steps used solutions with 40 nM TMRE because TMRE is a potentiometric dye, which fluctuates in and out of the mitochondria depending on their inner membrane potential. 40 nM was determined as the optimal concentration. Using an inverted microscope with two LED excitation sources (490 nm & 565 nm the red and green fluorescence signals from the MITOTRACKER™ and TMRE were visualized with 20× objective at 200 μm×300 μm, exposure time one second. To process and analyze the images, ImageJ software was used. For the entire field of view analysis, fluorescence intensity was measured from the field of view. In contrast, for single mitochondrion analysis, regions of interest enclosing the mitochondria were defined and three more identical copies of that region of interest were used to define the background noise. Fluorescence signal of the mitochondria was assigned as the measured signal subtracting the noise average. […] The electrical measurement of Ids versus time and the fluorescence time-lapse measurement of TMRE signal were collected. […] In contrast, fluorescence images were taken once every 5 s for the experiments with CCCP or every 2 min for the experiments with BIM-BH3. […]

[3] = exogenous agent, after BIM-BH3 induced MOMP

| Compound | buffer pH (pHbuffer) ([1]; agent added to mitochondria on graphene device in KCl buffer with 5 mM succinate, 2 μM rotenone) | ΔΨm ([2]; agent added to mitochondria on graphene device in KCl buffer) | buffer acidification after BIM-BH3 induced MOMP [1, 3] | ΔΨm after BIM-BH3 induced MOMP [2, 3] |
| --- | --- | --- | --- | --- |
| N#CC(C#N)=NNc1cccc(Cl)c1 [CCCP] | increase | decrease |  |  |
| cytochrome c [cytc] |  |  | blocks buffer acidification | rescues |
